Toxic doses and inconclusive results are not listed. Rule for the calls: active = survival T/C of 150% or more; inactive = T/C below 125% in these data.
Test system: BALB/cJ mice, ADJ-PC-6 ip tumor, median survival T/C
Test: NCI In Vivo Anticancer Drug Screen. Data for tumor model ADJ-PC-6 (intraperitoneal) in BALB/cJ mice
Details: endpoint: median survival time, schedule: Q01DX009 (ip), higher = longer survival
Method: The antitumor activity of compounds was measured in mice bearing transplantable tumors. Survival or tumor size were measured and the results are expressed as the measurement made in the treated group (T) divided by the measurement made in the vehicle treated control group (C). The tumor model used in this assay is ADJ-PC-6 (intraperitoneal) in BALB/cJ mice

Measured: T/C

CC1=C(C)C(=O)O[C@@H]([C@](C)(O)[C@]2(O)CC[C@@]3(O)[C@@H]4C[C@H]5O[C@]56[C@@H](O)C=CC(=O)[C@]6(C)[C@H]4CC[C@]23C)C1
inactive: dose: 1.0 mg/kg/injection, vehicle: saline + alcohol 111 % of control | dose: 1.0 mg/kg/injection, vehicle: saline with Tween-80 104 % of control | dose: 2.0 mg/kg/injection, vehicle: saline + alcohol 96 % of control | dose: 2.0 mg/kg/injection, vehicle: saline with Tween-80 107 % of control | dose: 4.0 mg/kg/injection, vehicle: saline + alcohol 98 % of control | dose: 4.0 mg/kg/injection, vehicle: saline with Tween-80 97 % of control | dose: 8.0 mg/kg/injection, vehicle: saline + alcohol 114 % of control | dose: 8.0 mg/kg/injection, vehicle: saline with Tween-80 106 % of control
